The values below come from ChEMBL document CHEMBL1153339, “Design, synthesis, and anti-HCV activity of thiourea compounds” (Bioorg Med Chem Lett, 2009).

pEC50: −log10 of the molar value.

The subject of data set [1] is Hepatitis C virus. Nature of the data set: Antiviral activity against HCV 1b infected in human Ava5 cells expressing EG(delta-4AB)SEAP fusion protein by subgenomic replicon assay. It is filed as functional, organism-based, Hepacivirus hominis. To be noted: genotype 1b. Background: Replicon systems follow genome replication, usually without infectious particles.
A short description of data set [2]: Cytotoxicity against human Ava5 cells. The data set is classed as cell-based.
Data set [3] can be described thus: Selectivity index, ratio of CC50 for human Ava5 cells to EC50 for HCV 1b.

As a reminder, the pEC50 is the negative decadic logarithm of the EC50, by convention in mol/L. A high value points to a low EC50. Broadly, the CC50 is the concentration at which the toxic effect on the cells reaches its halfway point. For `NC(=S)Nc1cccc(OCCCCCOc2ccc(Br)cc2)c1`, the pEC50 in data set [1] is 7.14. It took 19000 nM to reach half-maximal cytotoxicity in data set [2] (CC50). Further, the “Ratio CC50/EC50” value in data set [3] is 264.

With `NC(=S)Nc1cccc(OCCCCCOc2ccc(-n3cccc3)cc2)c1`, in data set [1], the pEC50 was 6.59. The compound further yielded a CC50 in data set [2] of more than 50000 nM. Besides, in data set [3], the “Ratio CC50/EC50” value was more than 196.

In data set [1], `NC(=S)Nc1cccc(NCCCCCc2ccccc2)c1` showed a pEC50 of 6.84. Besides, the CC50 in data set [2] was more than 50000 nM. For the same compound, the “Ratio CC50/EC50” value in data set [3] is recorded as more than 350.

Turning to `NC(=S)Nc1cccc(OCCCCCOc2ccc(N3CCOCC3)cc2)c1`, the pEC50 in data set [1] is 6.31. The CC50 in data set [2] was more than 50000 nM. Also, in data set [3], the “Ratio CC50/EC50” value was more than 103.

Turning to `NC(=S)Nc1cccc(OCCCCCOc2cccc(Nc3ccccc3)c2)c1`, the pEC50 in data set [1] is 6.75. The CC50 in data set [2] turned out to be 11000 nM. In data set [3], the “Ratio CC50/EC50” value is 62.

Take `COc1ccc(OCCCCCOc2cccc(NC(N)=S)c2)cc1`: the pEC50 in data set [1] is 6.66. Also, in data set [2], the CC50 is more than 50000 nM. For the same compound, the “Ratio CC50/EC50” value in data set [3] is given as more than 229.

In the case of `NC(=S)Nc1ccccc1OCCCCCc1ccccc1`, the pEC50 in data set [1] is 5.99. This compound also yielded a CC50 in data set [2] of 31000 nM. Further, the “Ratio CC50/EC50” value in data set [3] came out at 31.

Compound `NC(=S)Nc1cccc(OCCCCCOc2cccc(Oc3ccccc3)c2)c1` showed a pEC50 in data set [1] of 6.97. The compound also gave a CC50 in data set [2] of 18000 nM. Besides, in data set [3], the “Ratio CC50/EC50” value worked out at 168.

Consider `S=C(NCCc1ccccc1)Nc1cccc(OCCCCCc2ccccc2)c1`, for which the pEC50 in data set [1] is 4.87. Moreover, the CC50 in data set [2] was found to be 33000 nM. In data set [3], the “Ratio CC50/EC50” value stood at 2.

As for `NC(=S)Nc1cccc(OCCCCCOc2cccc3ccccc23)c1`, the pEC50 in data set [1] is 7.24. In data set [2], the CC50 was 14000 nM. The “Ratio CC50/EC50” value in data set [3] was 241.

As for `NC(=S)Nc1cccc(OCCCCCOc2cccc3ncccc23)c1`, the negative logarithm of the EC50 (pEC50) in data set [1] was 6.60. Also, half-maximal cytotoxicity in data set [2] (CC50) was put at 15000 nM. In addition, the “Ratio CC50/EC50” value in data set [3] came out at 60.

In data set [1], `NC(=S)Nc1cccc(OCCCc2ccccc2)c1` showed a pEC50 of 6.64. This compound also gave a CC50 in data set [2] of more than 50000 nM. Also, the “Ratio CC50/EC50” value in data set [3] is reported as more than 216.

For `NC(=S)Nc1cccc(OCCCCCOc2cccc(Cc3ccccc3)c2)c1`, the pEC50 in data set [1] was 7.24. The compound also gave a CC50 in data set [2] of 13000 nM. Also, the “Ratio CC50/EC50” value in data set [3] is listed as 224.

As for `NC(=S)Nc1cccc(OCCCCCOc2ccc(N3CCCCC3)cc2)c1`, the pEC50 in data set [1] is 6.39. The compound further displayed a CC50 in data set [2] of 12000 nM. Moreover, the “Ratio CC50/EC50” value in data set [3] came out at 29.

In data set [1], `NC(=S)Nc1cccc(OCCCCCOc2ccc(-c3cccs3)cc2)c1` had a pEC50 of 6.92. Also, the CC50 in data set [2] was more than 50000 nM. In addition, the “Ratio CC50/EC50” value in data set [3] is more than 413.

As for `CC(C)(CCOc1ccccc1)CCOc1cccc(NC(N)=S)c1`, the pEC50 in data set [1] is 6.98. The compound also yielded a CC50 in data set [2] of 13000 nM. In data set [3], the “Ratio CC50/EC50” value was found to be 124.

As for `CNC(=S)Nc1cccc(OCCCCCc2ccccc2)c1`, the pEC50 in data set [1] was 6.09. Besides, the CC50 in data set [2] was more than 50000 nM. Also, the “Ratio CC50/EC50” value in data set [3] is recorded as more than 61.

`NC(=S)Nc1cccc(OCCCCCOc2cccc(C(=O)c3ccccc3)c2)c1` had a pEC50 in data set [1] of 6.66. The same compound showed a CC50 in data set [2] of 13000 nM. In addition, the “Ratio CC50/EC50” value in data set [3] was found to be 60.

On to `NC(=S)Nc1cccc(OCCCCCc2ccccc2)c1`, for which the pEC50 in data set [1] was 7.32. The compound also registered a CC50 in data set [2] of 22000 nM. Also, the “Ratio CC50/EC50” value in data set [3] is listed as 458.

`NC(=S)Nc1cccc(OCCCCCOc2ccnc3ccccc23)c1` gave a pEC50 in data set [1] of 6.39. This compound also displayed a CC50 in data set [2] of 24000 nM. Further, in data set [3], the “Ratio CC50/EC50” value turned out to be 58.

`NC(=S)Nc1cccc(Oc2ccccc2)c1`: the pEC50 in data set [1] was 6.31. In data set [2], this compound displayed a CC50 of more than 50000 nM. In addition, the “Ratio CC50/EC50” value in data set [3] is listed as more than 101.

For `NC(=S)Nc1cccc(OCCCCCOc2cccnc2)c1`, the pEC50 in data set [1] is 5.95. The CC50 in data set [2] is more than 50000 nM. The “Ratio CC50/EC50” value in data set [3] is listed as more than 44.

Compound `NC(=S)Nc1cccc(OCCCCCOc2cccc(-c3ccccc3)c2)c1` showed a pEC50 in data set [1] of 6.67. Also, in data set [2], the CC50 came to 13000 nM. For the same compound, the “Ratio CC50/EC50” value in data set [3] is recorded as 61.

In the case of `NC(=S)Nc1cccc(OCCCCc2ccccc2)c1`, the pEC50 in data set [1] was 6.80. Also, the CC50 in data set [2] is more than 50000 nM. For the same compound, the “Ratio CC50/EC50” value in data set [3] is more than 314.

`NC(=S)Nc1cccc(OCCCCCOc2ccccn2)c1` had a pEC50 in data set [1] of 6.55. Moreover, the CC50 in data set [2] was more than 50000 nM. Further, the “Ratio CC50/EC50” value in data set [3] was more than 179.

`CCN(CC)c1ccc(OCCCCCOc2cccc(NC(N)=S)c2)cc1` showed a pEC50 in data set [1] of 6.23. Besides, the CC50 in data set [2] is more than 50000 nM. Moreover, the “Ratio CC50/EC50” value in data set [3] is given as more than 84.

For the compound `NC(=S)Nc1cccc(OCCCCCOc2ccc(-c3ccccc3)cc2)c1`, in data set [1], the pEC50 was 6.72. Moreover, in data set [2], the CC50 is more than 50000 nM. The “Ratio CC50/EC50” value in data set [3] is more than 262.

On to `CCCNC(=S)Nc1cccc(OCCCCCc2ccccc2)c1`, for which, in data set [1], the pEC50 is 6.15. In data set [2], this compound came in with a CC50 of 32000 nM. In data set [3], the “Ratio CC50/EC50” value is 45.

With `S=C(NCc1ccccc1)Nc1cccc(OCCCCCc2ccccc2)c1`, in data set [1], the pEC50 is 5.14. For the same compound, the CC50 in data set [2] is 32000 nM. In addition, the “Ratio CC50/EC50” value in data set [3] is 4.

In data set [1], `NC(=S)Nc1cccc(OCCCCCOc2cccc3cnccc23)c1` gave a pEC50 of 6.32. In data set [2], this compound came in with a CC50 of 26000 nM. In data set [3], the “Ratio CC50/EC50” value is given as 54.

`CCNC(=S)Nc1cccc(OCCCCCc2ccccc2)c1` had a pEC50 in data set [1] of 6.16. Besides, the CC50 in data set [2] was more than 50000 nM. Further, the “Ratio CC50/EC50” value in data set [3] is more than 73.

For the compound `NC(=S)Nc1cccc(OCCCCCOc2ccc(C(=O)O)cc2)c1`, in data set [1], the pEC50 is less than 4.30. For the same compound, the 50% cytotoxic concentration (CC50) in data set [2] is more than 50000 nM. The “Ratio CC50/EC50” value in data set [3] is recorded as more than 1.

Compound `NC(=S)Nc1cccc(OCCCCCOc2ccc(Cl)cc2)c1` showed a pEC50 in data set [1] of 7.14. Further, the midpoint of cytotoxicity in data set [2], the CC50, lay at 7000 nM. Besides, the “Ratio CC50/EC50” value in data set [3] was 97.

In turn, `NC(=S)Nc1cccc(OCCCCCOc2cccc3[nH]ccc23)c1` showed a pEC50 in data set [1] of 6.45. The same compound returned a CC50 in data set [2] of more than 50000 nM. Moreover, the “Ratio CC50/EC50” value in data set [3] is on record as more than 141.

Regarding `NC(=S)Nc1cccc(OCCCCCOc2ccccc2-c2ccccc2)c1`, in data set [1], the pEC50 was 7.01. Also, in data set [2], the midpoint of cytotoxicity, the CC50, lay at 13000 nM. Moreover, the “Ratio CC50/EC50” value in data set [3] is listed as 134.

With `NC(=S)Nc1cccc(OCCCCCOc2ccc(N3CCCC3)cc2)c1`, the pEC50 in data set [1] was 6.04. The CC50 in data set [2] amounted to 16000 nM. In addition, in data set [3], the “Ratio CC50/EC50” value is on record as 18.

In data set [1], `NC(=S)Nc1cccc(OCCCCCOc2ccccc2)c1` showed a pEC50 of 7.23. Besides, the CC50 in data set [2] is more than 50000 nM. The “Ratio CC50/EC50” value in data set [3] is more than 847.

For `NC(=S)Nc1cccc(OCCCCCOc2ccc(F)cc2)c1`, the pEC50 in data set [1] is 7.14. Further, the CC50 in data set [2] was found to be 5000 nM. In addition, the “Ratio CC50/EC50” value in data set [3] is 69.

Compound `CC(CCOc1ccccc1)CCOc1cccc(NC(N)=S)c1` (stereo unspecified) gave a pEC50 in data set [1] of 6.98. The cytotoxic concentration (CC50) in data set [2] was more than 50000 nM. For the same compound, in data set [3], the “Ratio CC50/EC50” value was more than 481.

The compound `NC(=S)Nc1cccc(OCCCCCOc2ccncc2)c1` gave a pEC50 in data set [1] of 5.52. In data set [2], this compound had a CC50 of more than 50000 nM. The “Ratio CC50/EC50” value in data set [3] is more than 17.

The compound `NC(=S)Nc1ccc(OCCCCCc2ccccc2)cc1` showed a pEC50 in data set [1] of 6.71. The CC50 in data set [2] was found to be 10000 nM. Also, the “Ratio CC50/EC50” value in data set [3] amounted to 51.

For `NC(=S)Nc1cccc(OCc2ccccc2)c1`, in data set [1], the pEC50 is 6.25. Besides, the CC50 in data set [2] was more than 50000 nM. For the same compound, the “Ratio CC50/EC50” value in data set [3] is given as more than 89.

`NC(=S)Nc1cccc(OCCCCCCCc2ccccc2)c1` gave a pEC50 in data set [1] of 7.01. In data set [2], this compound had a CC50 of 23000 nM. Besides, the “Ratio CC50/EC50” value in data set [3] is recorded as 237.

`NC(=S)Nc1cccc(OCCCCCOc2ccc(-c3ccco3)cc2)c1`: the negative-log EC50 (pEC50) in data set [1] is 6.87. In data set [2], this compound had a 50% cytotoxic concentration (CC50) of 11000 nM. Further, the “Ratio CC50/EC50” value in data set [3] came to 81.

Compound `NC(=S)Nc1cccc(OCCCCCCc2ccccc2)c1` showed a pEC50 in data set [1] of 7.33. Besides, in data set [2], the CC50 was found to be 28000 nM. In data set [3], the “Ratio CC50/EC50” value is on record as 596.

`NC(=S)Nc1cccc(OCCc2ccccc2)c1`: in data set [1], the pEC50 was 6.47. Further, in data set [2], the CC50 was more than 50000 nM. Moreover, the “Ratio CC50/EC50” value in data set [3] was more than 149.

In turn, `S=C(Nc1ccccc1)Nc1cccc(OCCCCCc2ccccc2)c1` had a pEC50 in data set [1] of 4.50. Further, the midpoint of cytotoxicity in data set [2], the CC50, lay at 35000 nM. In addition, the “Ratio CC50/EC50” value in data set [3] is reported as 1.
